# Data as given in patent publication US12504393B2, “Method and system for determining the progesterone-associated physiological state of lactating cows” (Yissum Research Development Company of the Hebrew …, priority 2020, dated 2025).
# Entries after “also recorded” stand apart in the source; their conditions may differ.
# Experiments:
# Format in all cases: cell-based, cow
# mammary epithelial cells [1] = test: Lipid droplet number and size in primary mammary epithelial cells incubated 24 h with fixed progesterone concentrations (Nile red/DAPI fluorescence microscopy)
# Method: Epithelial cells were isolated for mammary biopsies according to the method described in [3]. Cells were incubated for 24 h with 0, 1, 5, and 20 ng/ml progesterone. Cells were then fixed with 4% paraformaldehyde and nucleus and lipid droplets were stained with Dapi and Nile red (Sigma Aldrich, Israel), respectively. Four slides were prepared for each treatment and were visualized with an Olympus BX40 fluorescence microscope equipped with an Olympus DP73 digital camera using CellSens Entry software version 1.7. The lipid droplets of 6-10 cells on each slide were counted and measured using ImageJ software. The experiment was repeated twice. For the in-vitro study, primary culture of MEC was performed according to a protocol established described in [1]. Briefly, mammary tissue was collected from lactating cows in a commercial slaughterhouse and immediately transferred to ice-cold growth medium with 1000 U/ml penicillin, 1 mg/ml streptomycin, 2.5 μg/ml amphotericin mixture, and 0.02 mg/ml heparin. Mammary tissue was digested in medium with 1 mg/ml collagenase, 1 mg/ml hyaluronidase and 0.02 mg/ml heparin, for 3 h at 37° C. After incubation, the suspension was filtered through a metal mesh (250 μm). Sediments were treated with trypsin-EDTA solution and filtered through a 100-μm cell strainer (BD Falcon, Bedford, MA). Then, the cells were grown in plastic culture dishes with DMEM/F12 supplemented with 10% (w-/v) fetal bovine serum, 100 U/ml penicillin, 100 μg/ml streptomycin, 0.25 μg/ml amphotericin B, 1 μg/ml insulin and […] hydrocortisone. The medium was changed every 48 h. To examine the effect of progesterone on MFG formation, secretion and size, the culture medium was supplemented with very low-density lipoprotein (VLDL) and progesterone at different concentrations (0, 1, 5 and 20 ng/ml). Progesterone concentrations were based on those found in the plasma during the luteal and follicular phases in vivo. After 24 h, cells were either fixed for lipid droplet size analysis (detailed below (or harvested with trypsin (0.05% w/v), sedimented by centrifugation, and washed with 0.9 gr/L NaCl. For lipid extraction and analysis, 150,000 MEC were plated in a 60-mm plastic dish. For Nile red fluorescence staining, 50,000 MEC were plated in a 6-well plate on glass cover slips. After 24 h incubation, the culture medium was replaced with DMEM/F12 without serum, containing 0.15% (w/v) free fatty acids-free BSA and insulin (1 μg/ml), hydrocortisone (0.5 μg/ml) and prolactin (1 μg/ml). Cells were incubated for 48 h to induce milk lipid and protein synthesis. Cells were grown on glass cover slips, washed three times with phosphate buffered saline (PBS) and fixed with 4% paraformaldehyde in PBS for 20 min at room temperature. Then the cells were washed four times with PBS, stained with Nile red (200 nM) and incubated for 15 min. Cover slips were then washed three times with PBS and stained with DAPI for 5 min. Cover slips were washed four more times with PBS and mounted on a slide with fluorescent mounting medium (Dako North America Inc., Carpinteria, CA). The slides were visualized under an Olympus BX40 fluorescence microscope equipped with an Olympus DP73 digital camera using CellSens Entry software (version 1.7, Olympus). Lipid droplet diameter was measured using ImageJ software (version 1.48, NIH, Bethesda, MD). Lipid droplet diameter was divided into three size categories: small (<1 μm), medium (1 μm<x<2 μm) and large (>2 μm).
# mammary epithelial cells [2] = test: Lipid droplet number and size in primary mammary epithelial cells exposed 48 h to increasing or decreasing progesterone concentrations
# Method: The effect of progesterone concentration pattern during the estrous cycle on lipid droplet size was also tested. Primary mammary epithelial cells were exposed for 48 h to either increasing (0.75, 2.5 and 5 ng/ml) progesterone concentrations or decreasing (5, 2.5 and 0.75 ng/ml) progesterone concentrations. The concentrations were increased or decreased at specific times to reflect the progesterone pattern during the increasing and decreasing phases of the estrus cycle, i.e. the cells were exposed to increasing concentrations of 0.75, 2.5 and 5 ng/ml progesterone at 0, 17 and 28 h, respectively and cells were exposed to decreasing concentrations of 5, 2.5 and 0.75 ng/ml progesterone at 0, 28 and 34 h, respectively. Cells were then fixed and stained with nile-red. Four slides were prepared for each treatment and lipid droplets were counted and measured under fluorescence microscope. The experiment was repeated twice.
# For the in-vitro study, primary culture of MEC was performed according to a protocol established described in [1]. Briefly, mammary tissue was collected from lactating cows in a commercial slaughterhouse and immediately transferred to ice-cold growth medium with 1000 U/ml penicillin, 1 mg/ml streptomycin, 2.5 μg/ml amphotericin mixture, and 0.02 mg/ml heparin. Mammary tissue was digested in medium with 1 mg/ml collagenase, 1 mg/ml hyaluronidase and 0.02 mg/ml heparin, for 3 h at 37° C. After incubation, the suspension was filtered through a metal mesh (250 μm). Sediments were treated with trypsin-EDTA solution and filtered through a 100-μm cell strainer (BD Falcon, Bedford, MA). Then, the cells were grown in plastic culture dishes with DMEM/F12 supplemented with 10% (w-/v) fetal bovine serum, 100 U/ml penicillin, 100 μg/ml streptomycin, 0.25 μg/ml amphotericin B, 1 μg/ml insulin and […] hydrocortisone. The medium was changed every 48 h.
# To determine whether the absolute progesterone concentration or its pattern (i.e., increasing or decreasing) affects MFG, cells were treated for 48 h with increasing doses of progesterone: 0.75, 2.5 and 5 ng/ml. The culture medium was replaced after 11, 17, and 20 h, respectively, aimed to mimic the in-vivo luteal phase. The decreasing phase consisted of exposure to 5, 2.5 and 0.75 ng/ml progesterone. Culture medium was replaced after 8, 12 and 28 h, respectively, to mimic the follicular phase.
# Cells were grown on glass cover slips, washed three times with phosphate buffered saline (PBS) and fixed with 4% paraformaldehyde in PBS for 20 min at room temperature. […] The slides were visualized under an Olympus BX40 fluorescence microscope equipped with an Olympus DP73 digital camera using CellSens Entry software (version 1.7, Olympus). Lipid droplet diameter was measured using ImageJ software (version 1.48, NIH, Bethesda, MD). […]
# mammary epithelial cells [3] = test: Increasing or decreasing progesterone concentrations with or without VLDL in the culture medium: lipid droplet number and cellular phenotype
# Method: To determine whether the effect of progesterone on lipid droplet size is mediated by the presence of VLDL, a b-factorial experiment was performed. MEC were cultured with increasing or decreasing progesterone concentrations in the presence or absence of VLDL in the culture medium. This study was aimed to provide indirect evidence of lipoprotein lipase (LPL) activity, acting on VLDL and providing the MEC with exogenous, preformed fatty acids. After 48 h of incubation, cells were fixed and stained with Nile red and intracellular lipid droplet size was determined. Cells were grown on glass cover slips, washed three times with phosphate buffered saline (PBS) and fixed with 4% paraformaldehyde in PBS for 20 min at room temperature. Then the cells were washed four times with PBS, stained with Nile red (200 nM) and incubated for 15 min. Cover slips were then washed three times with PBS and stained with DAPI for 5 min. Cover slips were washed four more times with PBS and mounted on a slide with fluorescent mounting medium (Dako North America Inc., Carpinteria, CA). The slides were visualized under an Olympus BX40 fluorescence microscope equipped with an Olympus DP73 digital camera using CellSens Entry software (version 1.7, Olympus). Lipid droplet diameter was measured using ImageJ software (version 1.48, NIH, Bethesda, MD). Lipid droplet diameter was divided into three size categories: small (<1 μm), medium (1 μm<x<2 μm) and large (>2 μm).
# mammary epithelial cells [4] = test: Cellular triglyceride and phospholipid content and composition by HPLC-ELSD after 24 h progesterone
# Method: To examine the effect of progesterone on MFG formation, secretion and size, the culture medium was supplemented with very low-density lipoprotein (VLDL) and progesterone at different concentrations (0, 1, 5 and 20 ng/ml). Progesterone concentrations were based on those found in the plasma during the luteal and follicular phases in vivo. After 24 h, cells were either fixed for lipid droplet size analysis (detailed below (or harvested with trypsin (0.05% w/v), sedimented by centrifugation, and washed with 0.9 gr/L NaCl.
# For lipid extraction and analysis, 150,000 MEC were plated in a 60-mm plastic dish. For Nile red fluorescence staining, 50,000 MEC were plated in a 6-well plate on glass cover slips. After 24 h incubation, the culture medium was replaced with DMEM/F12 without serum, containing 0.15% (w/v) free fatty acids-free BSA and insulin (1 μg/ml), hydrocortisone (0.5 μg/ml) and prolactin (1 μg/ml). Cells were incubated for 48 h to induce milk lipid and protein synthesis.
# (§1) Lipids were extracted by the Folch protocol. Briefly, each cell sample was incubated for 1 h with “Folch mixture” (chloroform:methanol, […] volumetric ratio). The organic phase was separated by addition of double-distilled water (DDW) and overnight incubation at 4° C. The upper phase was then removed, and the lower phase filtered through glass wool. The lower phase was evaporated under nitrogen and then dissolved in chloroform:methanol (3:97). Samples were kept at −20° C. until further analysis.
# High-pressure liquid chromatography (HPLC) was performed in an HPLC 1200 (Agilent Technology) equipped with evaporative light-scattering detector. Tg, cholesterol and PL were identified using external standards (Sigma Aldrich). Quantification was performed against external standard curves and expressed as μg/106 live cells or as weight % of the total PL (μg) in the sample. The number of live cells was determined with a hemocytometer after Trypan blue staining.
# mammary epithelial cells [5] = test: Fatty acid distribution between triglyceride and phospholipid fractions (TLC and gas chromatography) after 24 h progesterone
# Method: as §1
# Lipid separation was performed by thin-layer chromatography and gas chromatography analysis. For the thin-layer chromatography, silica gel was spread on glass plates and activated at 105° C., 24 h before the analysis. After cooling, the cell samples, extracted by Folch protocol, were loaded into the plates along with triglyceride (Tg) and phospholipids (PL) standards. The plates were inserted into a tank with a mixture of petroleum ether, […] and acetic acid (8:2:1 volometric ratio) for 30 min, then sprayed with 0.05% v/v dichlorofluorescein in ethanol) and examined under UV light. The detected lipid segments were then separated from the plates into methylation mixture (5% v/v H2SO4 in methanol) for 1 h incubation at 65° C. Then, 1.5 ml petroleum-ether and 3 ml DDW were added to each sample. The upper phase was collected into a new vial and the organic solvent was evaporated with nitrogen. Then 100 μl petroleum-ether was added to each sample for fatty acid analysis in a gas chromatograph model 6890N, equipped with a flame-ionization detector and DB-23 capillary silica (0.25-μm film; Agilent Technology, Wilmington, DE). The analysis was performed according to a protocol established as described in [18]. Peaks were identified with Chemstation software (Agilent Technology). The concentrations of fatty acids are given as molar percentages of the total molar sum of the identified fatty acids. Fatty acids were classified according to chemical characteristics such as double bonds and carbon-chain length.
smiles,measurement,setting,value
CC(=O)[C@H]1CC[C@H]2[C@@H]3CCC4=CC(=O)CC[C@]4(C)[C@H]3CC[C@]12C [progesterone],proportion of large droplets (>1 μm),"mammary epithelial cells [1]; 0, 1 or 20 ng/ml progesterone, 24 h",≤ 20%
same,proportion of droplets larger than 1 μm,"mammary epithelial cells [1]; 5 ng/ml progesterone, 24 h",over 40%
same,number of lipid droplets,"mammary epithelial cells [1]; 5 ng/ml progesterone, 24 h, vs control",did not differ from the control
same,rate of large droplets (>1 μm),"mammary epithelial cells [1]; 20 ng/ml progesterone, 24 h",6.5%
same,number of large lipid droplets (>1 μm) per cell,"mammary epithelial cells [1]; 1 and 5 ng/ml progesterone, 24 h, relative to control (0 ng/ml), FIG. 3",higher number of large lipid droplets
same,proportion of large lipid droplets (X≥1 μm),"mammary epithelial cells [1]; 1 and 5 ng/ml relative to 20 ng/ml progesterone, FIG. 4, P<0.0001",higher
same,number of lipid droplets,"mammary epithelial cells [1]; 1 or 20 ng/ml progesterone, 24 h, vs control (no progesterone), P<0.0001",3.5 fold
same,proportion of large lipid droplets (>2 μm) of the total number of lipid droplets,"mammary epithelial cells [2]; decreasing ('down') compared to increasing ('up') progesterone concentrations, 48 h, FIG. 6, P=0.03",2 fold
same,increase in the number of lipid droplets,"mammary epithelial cells [2]; increasing (0.75, 2.5, 5 ng/ml, 'up') relative to decreasing (5, 2.5, 0.75 ng/ml, 'down') progesterone, 48 h, FIG. 5, P<0.0001",5.5 fold
same,increase in the large lipid droplets,"mammary epithelial cells [2]; increasing progesterone concentration 'compared to the increasing progesterone pattern' (so in the source), P<0.0001",3 fold
same,large lipid droplet phenotype (cells with droplets x>1 μm),"mammary epithelial cells [2]; increasing vs decreasing progesterone, FIG. 19C",only visualized in cells treated with increasing progesterone levels
same,differences in lipid droplet number and cellular phenotype between increasing and decreasing progesterone,mammary epithelial cells [3]; absence of VLDL,no differences were found
same,increase in MEC with large lipid droplets (>1 μm),"mammary epithelial cells [3]; decreasing progesterone concentration model with VLDL, P<0.0001",4 fold
same,increase in proportion of MEC with small lipid droplets (<1 μm),mammary epithelial cells [3]; increasing progesterone concentration model with VLDL,2.4 fold
same,average number of lipid droplets per field,"mammary epithelial cells [3]; increasing progesterone concentration with VLDL vs other treatments, FIG. 20B, P<0.0001",Highest number of lipid droplets
same,"membrane PL composition (PI, PE, PS, PC, SM)","mammary epithelial cells [4]; 0, 1, 5 and 20 ng/ml progesterone, 24 h",did not affect
same,concentration of Tg (cellular triglyceride content),"mammary epithelial cells [4]; 0, 1, 5 and 20 ng/ml progesterone, 24 h, FIG. 17A",not affected by progesterone
same,increase in concentration of the measured PL,"mammary epithelial cells [4]; 1 ng/ml compared to 0, 5 and 20 ng/ml progesterone, 24 h, P<0.05",approximately 1.3 fold
same,PL amount,"mammary epithelial cells [4]; 5 ng/ml progesterone, 24 h, P<0.05",tended to decrease
same,PC concentration (elevated),"mammary epithelial cells [4]; progesterone 24 h, apparently the 1 ng/ml treatment, P<0.05",20 μg/106 cells
same,distribution of stearic acid (C18:0) between Tg and PL,mammary epithelial cells [5]; 1 ng/ml progesterone,higher in the PL compartment; also recorded: found primarily in the membrane
same,distribution of stearic acid between Tg and membrane,mammary epithelial cells [5]; 5 ng/ml progesterone,mostly incorporated into the Tg
same,"concentration of lignoceric acid (C24:0), Tg vs PL","mammary epithelial cells [5]; 5 ng/ml progesterone, P<0.05",higher in the PL compartment
